Measured values published in patent US5707989A, “Pyrimido[5,4-D]pyrimidines, medicaments comprising these compounds, their use and processes for their preparation” (Dr. Karl Thomae GmbH, priority 1994, dated 1998).

Experiments:
Assay type in all cases: cell-based
[1] = system: human tumour cell line KB; experiment: EGF/TGF-alpha-stimulated proliferation (thymidine incorporation) of KB cells; conditions: TGF-alpha 10 ng/ml or EGF 20 ng/ml, 60 hours, then [3H]-thymidine 16-18 hours, read-out: IC50 for inhibition of the EGF/TGF-alpha-stimulated KB cell proliferation
Experimental: KB cells (obtained from ATCC) were passaged in DMEM (BioWhittaker) in the presence of 10% FCS (Boehringer Mannheim), 50 μM beta-mercaptoethanol and standard antibiotics. As an indicator of EGF/TGF-alpha-stimulated cell proliferation, the EGF-inducedDNA synthesis was determined by measurement of the incorporation of radioactively labelled thymidine. For this, the celels were washed twice and 1500 cells per well were plated out in a 96-well plate in 200 μl IMDM (BioWhittaker) without serum in the presence of 50 μM beta-mercaptoethanol, standard antibiotics, TGF-alpha [10 ng/ml] or EGF [20 ng/ml] and various concentrations of the substances according to the invention (triplicates, maximum DMSO concentration 1%, see proliferation test with F/L-HERc cells). After 60 hours, [^3 H]-thymidine (0.1 μCi in 10 μl) was added for about 16-18 hours. Subsequent measurement of the thymidine incorporation gave IC50 values of 0.1-1 μM for inhibition of the EGF/TGF-alpha-stimulated KB cell proliferation for compounds 2, 6, 17, 18, 19, 72, 83, 93, 95, 96 and 104 of Example 1.

human EGF-R = molecular target: T1, human EGF-R (Homo sapiens, UniProt P00533); experiment: Inhibition of EGF-dependent proliferation of F/L-HERc cells; conditions: human EGF 20 ng/ml, 48 hours
T1 construct: expressed in transfected cells; host or cells: F/L-HERc cells: murine IL-3-dependent line FDC-P1 infected with recombinant retrovirus (LXSN vector, GP+E86 packaging line) carrying human EGF-R cDNA
T1 sequence (P00533 25-1210): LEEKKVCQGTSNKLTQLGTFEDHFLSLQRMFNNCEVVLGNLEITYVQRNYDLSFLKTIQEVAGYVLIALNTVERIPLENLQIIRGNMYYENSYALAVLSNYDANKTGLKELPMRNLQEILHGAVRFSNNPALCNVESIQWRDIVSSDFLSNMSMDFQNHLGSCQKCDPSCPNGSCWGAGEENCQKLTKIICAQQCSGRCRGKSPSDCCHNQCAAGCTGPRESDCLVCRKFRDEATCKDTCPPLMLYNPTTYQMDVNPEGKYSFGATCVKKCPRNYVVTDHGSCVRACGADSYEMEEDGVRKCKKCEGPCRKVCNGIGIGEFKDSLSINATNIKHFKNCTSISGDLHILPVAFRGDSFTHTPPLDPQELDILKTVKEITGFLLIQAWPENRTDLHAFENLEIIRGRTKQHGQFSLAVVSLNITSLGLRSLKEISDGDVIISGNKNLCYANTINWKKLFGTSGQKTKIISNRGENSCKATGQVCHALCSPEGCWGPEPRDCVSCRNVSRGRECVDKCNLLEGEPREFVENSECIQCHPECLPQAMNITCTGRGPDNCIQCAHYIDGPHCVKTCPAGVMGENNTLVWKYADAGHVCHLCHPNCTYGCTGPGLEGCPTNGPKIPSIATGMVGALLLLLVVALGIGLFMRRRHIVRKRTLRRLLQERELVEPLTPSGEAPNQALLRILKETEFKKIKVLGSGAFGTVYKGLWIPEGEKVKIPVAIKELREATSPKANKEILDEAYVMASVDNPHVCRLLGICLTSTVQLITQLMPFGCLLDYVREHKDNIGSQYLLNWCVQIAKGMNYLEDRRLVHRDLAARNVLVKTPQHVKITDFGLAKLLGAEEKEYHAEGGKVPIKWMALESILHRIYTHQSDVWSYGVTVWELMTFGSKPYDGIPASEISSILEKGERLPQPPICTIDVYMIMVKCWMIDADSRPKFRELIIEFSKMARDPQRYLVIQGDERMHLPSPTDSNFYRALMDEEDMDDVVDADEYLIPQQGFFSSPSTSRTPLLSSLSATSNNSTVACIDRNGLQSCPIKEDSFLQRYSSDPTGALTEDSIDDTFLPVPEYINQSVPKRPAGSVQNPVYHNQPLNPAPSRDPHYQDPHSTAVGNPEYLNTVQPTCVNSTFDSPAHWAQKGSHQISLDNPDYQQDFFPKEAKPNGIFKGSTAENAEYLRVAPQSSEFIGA
Source text: (§1) The inhibition of EGF-R-mediated signal transmission can be detected, for example, with cells which express human EGF-R, the survival and proliferation of which depend on stimulation by EGF or TGF-alpha. An interleukin-3 (IL-3)-dependent cell line of murine origin which was changed genetically such that it expresses functional human EGF-R was used here. The proliferation of these cells, called F/L-HERc, can therefore be stimulated either by murine IL-3 or by EGF (see von Ruden, T. et al. in EMBO J. 7, 2749-2756 (1988) and Pierce, J. H. et al. in Science 239, 628-631 (1988)).
(§2) The starting material used for the F/L-HERc cells was the cell line FDC-P1, the preparation of which has been described by Dexter, T. M. et al. in J. Exp. Med. 152, 1036-1047 (1980). Alternatively, however, other growth factor-dependent cells can also be used (see, for example, Pierce, J. H. et al. in Science 239, 628-631 (1988), Shibuya, H. et al. in Cell 70, 57-67 (1992) and Alexander, W. S. et al. in EMBO J. 10, 3683-3691 (1991)). Recombinant retroviruses were used for expression of the human EGF-R cDNA (see Ullrich, A. et al. in Nature 309, 418-425 (1984)), as described in yon Ruden, T. et al., EMBO J. 7, 2749-2756 (1988), with the difference that the retroviral vector LXSN (see Miller, A. D. et al. in BioTechniques 7, 980-990 (1989)) was used for expression of the EGF-R cDNA and the line GP+E86 (see Markowitz, D. et al. in J. Virol. 62, 1120-1124 (1988)) was used as the packing cell.
(§3) The test was carried out as follows:
(§4) F/L HERc cells were cultured at 37° C. and 5% CO2 in RPMI/1640 medium (BioWhittaker), supplemented with 10% foetal bovine serum (FCS, Boehringer Mannheim), 2 mM glutamine (BioWhittaker), standard antibiotics and 20 ng/ml of human EGF (Promega). For investigation of the inhibitory activity of the compounds according to the invention, 1.5×10^4 cells per well were cultured in triplicate in 96-well plates in the above medium (200 μl), proliferation of the cells being stimulated with either EGF (20 ng/ml) or murine IL-3. Culture stocks of the cell line X63/0 mIL-3 were used as the source for IL-3 (see Karasuyama, H. et al. in Eur. J. Immunol. 18, 97-104 (1988)). The compounds according to the invention were dissolved in 100% dimethyl sulphoxide (DMSO) and added to the cultures in various dilutions, the maximum DMSO concentration being 1%. The cultures were incubated at 37° C. for 48 hours.
(§5) To determine the inhibitory activity of the compounds according to the invention, the relative cell count was measured in OD units with Cell Titer 96™ Aqueous Non-Radioactive Cell Proliferation Assay (Promega). The relative cell count was calculated in per cent of the control (F/LHERc cells without inhibitor) and the active compound concentration which inhibits the proliferation of the cells to 50% (IC50) was deduced.

F/L-HERc cells = experiment: Inhibition of IL-3-dependent proliferation of F/L-HERc cells; conditions: Mus musculus, murine IL-3, 48 hours
Source text: as §1, §2, §3, §4, §5

IC50 [1] | IC50 (human EGF-R) | SMILES | IC50 (F/L-HERc cells)
100 to 1000 nM | 5 nM | Cc1cccc(Nc2ncnc3cnc(NC(C)(C)C)nc23)c1 [1(6), 4-[(3-Methylphenyl)amino]-6-(tert-butylamino)-pyrimido[5,4-d]pyrimidine] | > 10000 nM
100 to 1000 nM | 40 nM | Cc1cccc(Nc2ncnc3cnc(NC4CC4)nc23)c1 [1(17), 4-[(3-Methylphenyl)amino]-6-(cyclopropylamino)-pyrimido[5,4-d]pyrimidine] | > 3000 nM
100 to 1000 nM | 50 nM | Cc1cccc(Nc2ncnc3cnc(N4CCOCC4)nc23)c1 [1(19), 4-[(3-Methylphenyl)amino]-6-(morpholino)-pyrimido[5,4-d]pyrimidine] | > 10000 nM
100 to 1000 nM | 3 nM | Cc1cccc(Nc2ncnc3cnc(N[C@H]4CC[C@H](O)CC4)nc23)c1 [1(72), 4-[(3-Methylphenyl)amino]-6-[(trans-4-hydroxycyclohexyl)amino]-pyrimido[5,4-d]pyrimidine] | > 3000 nM
100 to 1000 nM |  | Clc1cccc(Nc2ncnc3cnc(NC4CC4)nc23)c1 [Example 1(83), 4-[(3-Chlorophenyl)amino]-6-(cyclopropylamino)-pyrimido[5,4-d]pyrimidine] | 
100 to 1000 nM |  | Clc1cccc(Nc2ncnc3cnc(N4CCCC4)nc23)c1 [Example 1(93), 4-[(3-Chlorophenyl)amino]-6-(1-pyrrolidinyl)-pyrim-ido[5,4-d]pyrimidine] | 
100 to 1000 nM |  | CC(C)Nc1ncc2ncnc(Nc3cccc(Br)c3)c2n1 [Example 1(95), 4-[(3-Bromophenyl)amino]-6-(isopropylamino)-pyrimido[5,4-d]pyrimidine] | 
100 to 1000 nM |  | CC(C)Nc1ncc2ncnc(Nc3cccc(Cl)c3)c2n1 [Example 1(96), 4-[(3-Chlorophenyl)amino]-6-(isopropylamino)-pyrim-ido[5,4-d]pyrimidine] | 
100 to 1000 nM |  | O[C@H]1CC[C@H](Nc2ncc3ncnc(Nc4cccc(Br)c4)c3n2)CC1 [Example 1(104), 4-[(3-Bromophenyl)amino]-6-[(trans-4-hydroxycyclohexyl)-amino]pyrimido[5,4-d]pyrimidine] | 
